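Results reflect a 48-hour exposure of cells in 96-well plates to compound at five concentrations. GI50: concentration for 50% inhibition of growth. TGI: total growth inhibition.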
Experiments:
Experiment in all cases: NCI anticancer screen, dose series, 48 h
NCI-H23 lung = tested on: NCI-H23 lung
HCT-15 colon = tested on: HCT-15 colon
HT29 colon = tested on: HT29 colon
TK-10 renal = tested on: TK-10 renal
UACC-62 melanoma = tested on: UACC-62 melanoma
CAKI-1 renal = tested on: CAKI-1 renal
SF-268 CNS = tested on: SF-268 CNS
OVCAR-4 ovarian = tested on: OVCAR-4 ovarian
DU-145 prostate = tested on: DU-145 prostate
RXF 393 renal = tested on: RXF 393 renal

Row | Structure (SMILES) | TGI (NCI-H23 lung) | TGI (HCT-15 colon) | TGI (HT29 colon) | TGI (TK-10 renal) | TGI (UACC-62 melanoma) | TGI (CAKI-1 renal) | TGI (SF-268 CNS) | TGI (OVCAR-4 ovarian) | GI50 (NCI-H23 lung) | GI50 (DU-145 prostate) | TGI (DU-145 prostate) | GI50 (HCT-15 colon) | GI50 (HT29 colon) | GI50 (TK-10 renal) | GI50 (UACC-62 melanoma) | GI50 (SF-268 CNS) | GI50 (RXF 393 renal) | TGI (RXF 393 renal) | GI50 (OVCAR-4 ovarian) | GI50 (CAKI-1 renal)
1 | CCOC(=O)c1cc(/C=C/C(C)=C/C(=O)OC)oc1-c1ccccc1 | > 100 µM | > 100 µM | > 100 µM | > 100 µM | > 100 µM | > 100 µM | > 100 µM | > 100 µM |  |  |  |  |  |  |  |  |  |  |  | 
2 | COc1ccc(C[n+]2c3ccccc3n3c4ccc(N)cc4ccc32)c(OC)c1OC | 24.9 µM | > 100 µM | 33.2 µM | 79.4 µM | 10.9 µM |  | 15.5 µM | 31.9 µM | 1.99 µM | 6.42 µM | 78.1 µM | 82.1 µM | 4.63 µM | 22.4 µM | 2.62 µM | 2.42 µM | 6.3 µM | 21.9 µM | 2.27 µM | 
3 | Cc1nc2ccccc2c(=O)n1/N=C(\N=Nc1cc(Cl)ccc1Cl)c1cccc(-c2ccco2)c1 | > 100 µM | > 100 µM | > 100 µM | > 100 µM | > 100 µM | > 100 µM | > 100 µM | > 100 µM |  |  |  |  |  |  |  |  |  | > 100 µM |  | 
4 | Cc1ccc(C2CC(c3ccc([N+](=O)[O-])cc3)=Nc3ccccc3S2)cc1 (stereo unspecified) | 77.4 µM | 46.2 µM | 95.5 µM | > 100 µM | > 100 µM | > 100 µM | > 100 µM | > 100 µM |  |  |  |  |  |  |  |  |  | 38.9 µM |  | 
5 | O=C(/C=C/C12c3ccccc3C(c3ccccc31)C1C(=O)N(c3ccccc3)C(=O)C12)c1ccc(Cl)cc1 (stereo unspecified) | 13.2 µM | 6.46 µM | 7.88 µM | 25.1 µM | 4.58 µM | 3.52 µM | > 100 µM |  | 2.61 µM | 1.77 µM | 4.03 µM | 1.19 µM | 1.86 µM | 3.18 µM | 1.66 µM | 4.56 µM | 1.27 µM | 2.87 µM |  | 1.02 µM
6 | O=C(CC(=O)c1ccc([N+](=O)[O-])cc1)C(=O)Nc1nccs1 | > 100 µM | > 100 µM | > 100 µM | > 100 µM | > 100 µM | > 100 µM | > 100 µM | > 100 µM |  |  |  |  |  |  |  |  |  | > 100 µM |  | 
7 | O=S1CSCS1 (stereo unspecified) | > 100 µM |  | > 100 µM | > 100 µM | > 100 µM | > 100 µM | > 100 µM | > 100 µM |  |  |  |  |  |  |  |  |  | > 100 µM |  | 
8 | O=C(CCN1CCOCC1)Nc1ccc(F)cc1F | > 100 µM | > 100 µM | > 100 µM | > 100 µM | > 100 µM | > 100 µM | > 100 µM | > 100 µM |  |  | > 100 µM |  |  |  |  |  |  |  |  | 
9 | O=C(c1ccccc1)C(c1ccccc1)C1(O)C(=O)Nc2ccccc21 (stereo unspecified) | > 100 µM | > 100 µM | > 100 µM | > 100 µM | > 100 µM | > 100 µM | > 100 µM | > 100 µM |  |  |  |  |  |  |  |  |  | > 100 µM |  | 
10 | CC1(C)C(c2ccccc2)C12CCC1(C2=O)C(c2ccccc2)C1(C)C (stereo unspecified) | 44.6 µM | 51.8 µM | 35 µM | > 100 µM | > 100 µM | 60.3 µM | 97.7 µM | > 100 µM |  |  |  |  |  |  |  |  |  | 45.7 µM |  | 
11 | O=C(O)C1CCc2nnc(-c3ccccc3)n21 (stereo unspecified) |  | > 100 µM |  | > 100 µM | > 100 µM | > 100 µM | > 100 µM | > 100 µM |  |  |  |  |  |  |  |  |  | > 100 µM |  | 
12 | O=C1c2ccccc2C(=O)C2C1C1C(=O)c3ccccc3C(=O)C21 (stereo unspecified) | > 100 µM | > 100 µM | > 100 µM | > 100 µM | > 100 µM | > 100 µM | > 100 µM | > 100 µM |  |  |  |  |  |  |  |  |  | > 100 µM |  | 
13 | COc1c(C2=NC(C(C)C)CO2)ccc2ccccc12 (stereo unspecified) | > 100 µM | > 100 µM | > 100 µM | > 100 µM | > 100 µM | > 100 µM | > 100 µM | > 100 µM |  |  |  |  |  |  |  |  |  | 86.8 µM |  | 
14 | Cc1cc(=O)n(-c2ccccc2)c(=O)o1 | > 100 µM | > 100 µM | > 100 µM | > 100 µM | > 100 µM | > 100 µM | > 100 µM | > 100 µM |  |  |  |  |  |  |  |  |  | > 100 µM |  | 
15 | CCCN(CCCN)/[N+]([O-])=N\O | > 100 µM | > 100 µM | > 100 µM |  | 0.831 µM | > 100 µM | > 100 µM | > 100 µM |  |  |  |  |  |  |  |  |  | > 100 µM |  | 
16 | N=CCCN(CCC=N)c1ccc(/C=C2\CN(NC(=O)c3ccc(Cl)cc3)C(c3ccccc3)=N2)cc1 | > 100 µM | > 100 µM | > 100 µM | > 100 µM | > 100 µM | > 100 µM | > 100 µM | > 100 µM |  |  |  |  |  |  |  |  |  |  |  | 
17 | NC(N)=NS(=O)(=O)c1ccc(Nc2c3ccccc3nc3c(C(=O)N4CCN(CCO)CC4)cccc23)cc1 | > 100 µM | > 100 µM | > 100 µM | > 100 µM | > 100 µM | > 100 µM | > 100 µM | > 100 µM |  |  |  |  |  |  |  |  |  | > 100 µM |  | 
18 | Cc1ccc(NC(=O)CC/C(CC(=O)C(C)(C)C)=N/NC(=O)C(N)=O)cc1C | > 100 µM | > 100 µM | > 100 µM | > 100 µM | > 100 µM | > 100 µM | > 100 µM | > 100 µM |  |  |  |  |  |  |  |  |  | > 100 µM |  | 
19 | O=C(/C=C1\C(=O)N(Cc2ccc([N+](=O)[O-])cc2)c2ccccc21)c1ccc(OCCN2CCCCC2)cc1 | 2.97 µM | 2.48 µM | 2.88 µM | 2.74 µM | 2.79 µM | 2.26 µM | 3.32 µM | 2.83 µM | 1.47 µM | 1.56 µM | 2.93 µM | 1.19 µM | 1.4 µM | 1.43 µM | 1.44 µM | 1.58 µM |  |  | 1.47 µM | 1.07 µM
20 | CN(C)c1ccc2c(c1)CN1C(=O)c3ccccc3C1=N2 | > 100 µM | > 100 µM | > 100 µM | > 100 µM | > 100 µM |  |  | > 100 µM | > 100 µM |  |  | > 100 µM | > 100 µM | > 100 µM | > 100 µM |  | > 100 µM | > 100 µM | > 100 µM | 
